Measured values from patent US20030031658A1, “Targeting of endosomal growth factor processing as anti-cancer therapy” (priority 1999, published 2003).

How the values were obtained:
IGF-IR = IGF-IR mRNA and total immunoprecipitable receptor levels; assay type: cell-based; conditions: H-59 and MCF-7
Procedure: (§1) Cells were then washed with PBS, solubilized in 30 mM Hepes pH 7.4, 150 mM NaCl, 1% Triton X-100, and spun at maximal speed in a microfuge for 15 min. Cell lysates (1 to 3 mg) were then immunoprecipitated respectively with anti-Shc, anti-IRS-1 or anti-IGF-IR antibodies overnight at 4° C. Immunoprecipitates were collected by addition of Protein A-Sepharose beads, washed three times with lysis buffer and resuspended finally in Laemmli sample buffer (Long et al 1986a). Immunoprecipitates were resolved by SDS-PAGE and transferred onto nitrocellulose membranes followed by immunoblotting with anti-phosphotyrosine antibodies or with antibodies to IRS-1, Shc or IGF-1R followed by HRP—conjugated goat anti-mouse or goat anti-rabbit IgG antibodies.

[1] = tested on: IGF-IR β subunit and substrates; assay: Immunoprecipitation and anti-phosphotyrosine Western blot, H-59; assay type: cell-based, murine
Procedure: as §1

H-59 tumor cells = conditions: in vivo; cited from earlier work
[2] = tested on: endosomal IGF-I proteolysis; assay: IGF-1 proteolysis assay, liver endosomal extract; assay type: biochemical, rat
Procedure: H-59 is a highly metastatic subline of the Lewis lung carcinoma with metastatic predilection for the liver, (Brodt et al 1986). Human breast carcinoma cell line MCF-7 was a gift from Dr. Mader (Dept of Biochemistry, University of Montreal, PQ, Canada). Endosomal fractions were prepared from livers of male Sprague-Dawley rats after an 18 h period of fasting. The livers were homogenized and the endosomal fractions isolated by discontinuous sucrose gradient centrifugation and collected at the 0.25 M to 1.0 M sucrose interface (20, 21, 24). The soluble extract (ENs) from the endosomal fractions was isolated by freeze/thawing in 5 mM Na-phosphate pH 7.4, and disrupted in the same hypotonic medium using a small Dounce homogenizer (15 strokes with the tight Type A pestle) followed by centrifugation at 300,000×gav for 30 min as described previously (20, 21, 24).
These preparations were incubated for various lengths of time at 37° C. with 10-^6 M unlabeled or 50,000 cpm [^125I]-labeled IGF-1 in 200 or 400 μl of 50 mM citrate-phosphate pH 5, respectively. The integrity of the radiolabeled ligand was assessed by precipitation with 10% trichloroacetic acid (Authier et al, 1995). […] Eluates were monitored on-line for absorbance at 214 nm with a LC spectrophotometer.

MCF-7 cells = assay: IGF-I induced thymidine incorporation with E-64, MCF-7; assay type: cell-based, human
MMP-2 = assay: IGF-1-mediated induction of MMP-2 synthesis (Northern, Western, zymography); assay type: cell-based, murine
Description: This medium was replenished on alternate days for 12 days. […] Blots were probed with a 1:500 dilution of mAb Ab-45 to MMP-2 and an alkaline phosphatase conjugated affinity purified, goat anti rabbit IgG, diluted 1:2000. For Northern blotting, a ^32P-labeled 1.1-Kb human MMP-2 and an 800-bp rat cyclophilin cDNA fragment were used as hybridization probes.

[3] = tested on: IGF-IR β subunit and substrates; assay: Immunoprecipitation and anti-phosphotyrosine Western blot, MCF-7; assay type: cell-based, human
Procedure: as §1

human IGF-I receptor = assay: Fluorocytometry of cell surface IGF-1 receptors with mAb αIR3, MCF-7; assay type: cell-based
Procedure: (§2) The ligand-binding assay and fluorocytometry were used to measure cell surface IGF-1 receptors on the murine H-59 and human MCF-7 cells, respectively. […] Incubation was for 1 h at 37° C. following which the cells were rinsed and lysed in 0.01 N NaOH containing 0.1% Triton X-100 and 0.1% SDS and the radioactivity measured. The number of cells/plate at the time of the assay was determined from triplicate control wells which were manipulated in a similar manner. The Ligand program (27, 28) was used to calculate the number of IGF-1 binding sites per cell. IGF-1 receptors on MCF-7 cells were immunofluorescence labeled using 5 μg/ml mAb αIR3 and an FITC-conjugated goat anti-mouse IgG (diluted 1:50). […] Labeled cells were fixed in PBS containing 1% formalin and analyzed using a FACS Calibur System (Becton-Dickinson, San Jose, Calif.).

[4] = tested on: IGF-I proteolysis in H-59 and MCF-7 cell lysates; assay: IGF-1 proteolysis assay, tumor cell lysates; assay type: biochemical
Procedure: These preparations were incubated for various lengths of time at 37° C. with 10-^6 M unlabeled or 50,000 cpm [^125I]-labeled IGF-1 in 200 or 400 μl of 50 mM citrate-phosphate pH 5, respectively. The integrity of the radiolabeled ligand was assessed by precipitation with 10% trichloroacetic acid (Authier et al, 1995). To measure proteolysis of the unlabeled IGF-1, the samples were acidified with acetic acid (15%) and immediately loaded onto a reverse-phase HPLC column. Reverse-phase HPLC was performed on a Waters model 600 liquid chromatograph equipped with a model U6K sample injector fitted with a […] and a mBondapak C18 column (Waters, 0.39×30 cm, […]). Samples were chromatographed using as eluent a mixture of 0.1% TFA in water (solvent A) and 0.1% TFA in acetonitrile (solvent B) with a flow rate of 1 ml/min. Elution was carried out using two sequential linear gradients followed by an isocratic elution: an initial gradient of 0-20% solvent B (30 min); a second gradient of 20-39% solvent B (15 min); and a third isocratic elution of 39% solvent B (15 min). Eluates were monitored on-line for absorbance at 214 nm with a LC spectrophotometer.

[5] = tested on: IGF-I binding sites on H-59 cells; assay: Ligand-binding assay of cell surface IGF-1 receptors, H-59; parameters: species or system murine
Procedure: as §2

H-59 cells = assay: IGF-I induced thymidine incorporation with E-64, H-59; assay type: cell-based, murine

For `CC(C)C[C@H](NC(=O)[C@H]1O[C@@H]1C(=O)O)C(=O)NCCCCN=C(N)N` (relative stereo) [E-64, trans-epoxysuccinyl-L-leucylamido (4-guanidino)-butane], the “IGF-IR mRNA levels” value (IGF-IR) is listed as “In neither of these cell types did E-64 treatment cause a reduction”, the “ligand-induced tyrosine phosphorylation of p52shc” value [1] is listed as “increase” and the “liver colonization by H-59 tumor cells” value (H-59 tumor cells) is listed as “inhibited liver colonization”. For the same compound, the “increase in TCA-soluble radioactivity over time (IGF-I proteolysis)” value ([2]; endosomal fractions, radioiodinated IGF-I, 1 hr) was “completely abolished”, the “IGF-I degradation products by reverse phase HPLC” value ([2]; liver parenchymal endosomal fractions, acidic pH) was “absent following E-64 treatment” and the “incorporation of 3H-thymidine in response to IGF-I” value (MCF-7 cells; MCF-7) was “completely abrogated”. The IGF-I induced proliferation (MCF-7 cells; MCF-7, E-64 10 μg/ml) was “abolished”, the “reduction of MMP-2 mRNA synthesis” value (MMP-2; H-59, E-64 10 μg/ml) was 2 fold and the “MMP-2 production and activity” value (MMP-2; Western blotting and gelatin zymography, E-64 10 μg/ml) was “decreased MMP-2 production and activity”. For the same compound, the “tyrosine phosphorylated IRS-1” value [3] was “increase”, the “reduction in the number of immunolabeled cells” value (human IGF-I receptor; MCF-7, 40 min after addition of ligand) was 45% and the “mean intensity of fluorescence” value (human IGF-I receptor; MCF-7, 40 min after addition of ligand (declining from 255)) was 82. For the same compound, the “increase in TCA-soluble radioactivity over time (IGF-I proteolysis)” value ([4]; cell lysates, radioiodinated IGF-I, 1 hr) was “completely abolished”, the “IGF-I degradation products by reverse phase HPLC” value ([4]; lysates of E-64-treated tumor cells, acidic pH) was “absent following E-64 treatment” and the “number of IGF-I binding sites” value ([5]; H-59, E-64 treated (untreated 3.9×10^5)) was 1.8×10^5 sites/cell. For the same compound, the “reduction of the number of IGF-I binding sites” value ([5]; H-59, E-64 treated vs untreated) was “more than 2 fold”, the “incorporation of 3H-thymidine in response to IGF-I” value (H-59 cells; H-59) was “completely abrogated” and the IGF-I induced proliferation (H-59 cells; H-59, E-64 10 μg/ml) was “abolished”.
